Series [1] can be described thus: Steady-state shear of comparative aqueous solutions. Type of series: physicochemical. As to conditions: 5 mmol·L^−1 aqueous solution; for viscosity of the system (steady-state shear): high or low shear rates.
The nature of series [2]: Determination of surface tension (ring method). Type of series: physicochemical. Conditions: aqueous, 25° C. The protocol: Determination of surface tension. A series of aqueous surfactant solutions having different concentrations were prepared, and the surface tension was measured by a ring method at 25° C., and the surface tension curve was plotted.
A further series concerns L929 cells. Description: 3D cell incubation in hydrogel, FDA/PI staining. Type of series: cell-based. As to conditions: 3D incubation in hydrogel, 24 h, 48 h and 96 h. The protocol:
L929 cells were encapsulated in a 6-dehydroabietylamide-N,N-dimethyl-hexylamine oxide gel under sterile conditions for 3D cell incubation. The cell suspension was added into the 6-dehydroabietylamide-N,N-dimethyl-hexylamine oxide solution with a sol state, and a cell/hydrogel system was formed within 30 s, and further incubated at 37° C. for 15 min. Thereafter, 2 mL of RPMI-1640 medium containing 10% FBS fetal bovine serum and 1% penicillin/streptomycin was gently added to the incubation dish, and the cell/hydrogel system was incubated in a humidified atmosphere of 37° C. and 5% CO2. The medium was replaced after 1 h of incubation and then replaced every 12 h. After incubation for 24 h, 48 h and 96 h, the cell/hydrogel system was stained with FDA/PI and the cells were observed by a confocal laser scanning microscope. […] It can be seen that 6-dehydroabietylamide-N,N-dimethyl-hexylamine oxide hydrogel can be used as a 3D cell incubation scaffold and had potential application in cell therapy and tissue regeneration.

A short description of series [3]: Cryo-TEM microstructure of the gel system. Type of series: physicochemical. As to conditions: 5 mmol·L^−1 hydrogel. The protocol: Sample preparation was carried out using an environment controlled low temperature sample preparation device Cryoplunge TM3, and the ambient temperature was fixed at 25° C. The relative humidity in the device cavity was adjusted to over 90%, about 5 μL of the sample was pipetted onto the surface of the micro-grid, and the droplets on the surface of the micro-gate were absorbed by patting the sample with the filter paper on both sides of Cp3 to obtain a very thin liquid film. The sample was then quickly inserted into liquid ethane cooled liquid nitrogen. The frozen sample was transferred to a sample rod cooled with liquid nitrogen and transferred to a transmission electron microscope for observation at an operating voltage of 120 kV. It can be seen from the in situ frozen transmission electron micrograph of a hydrogel sample formed by 5 mmol·L^−1 6-dehydroabietylamide-N,N-dimethyl-hexylamine oxide in FIG. 8 that the microscopic morphology of the hydrogel was a relatively rigid nanofiber having a cross-sectional diameter of about 10 nm and a length of more than 2 μm.
The reason was that the 6-dehydroabietylamide-N,N-dimethyl-hexylamine oxide molecule formed a left-handed helical fiber structure having a diameter of about 10 nm by molecular self-assembly. […]

A short description of series [4]: Gel emulsion stability test. Type of series: physicochemical. As to conditions: 20° C.; for Stability: gel emulsion, 0.22% stabilizer. The protocol: To the 0.22% solution of 6-dehydroabietylamide amine oxide, different volumes of oil were added (the volume ratios of 6-dehydroabietylamide amine oxide solution to oil were 0.2:9.8, 3:7, 5:5,7:3, and 9.9: 0.1, and total volume was 4 mL), and then the mixture was emulsified at 11,000 r/min using an ultraturrax homogenizer (IKA T18 basic, S18N-10G head) for 2 min. The emulsion was allowed to stand and cool at a low temperature to form a white gel emulsion.
The prepared gel emulsion was placed in a 20° C. incubator, and the stability of the gel emulsion was observed. When the concentration of 6-dehydroabietylamide-N,N-dimethyl-hexylamine oxide as stabilizer was 0.22% of the mass of the continuous phase, and the volume fraction of the disperse phase was in the range of 1%-98%, a gel emulsion was formed.

Series [5] can be described thus: Gel sustained-release performance test (in vitro release of embedded Rhodamine B). In kind it is physicochemical. As to conditions: embedded in 20 mmol·L^−1 hydrogel, 37° C. As to the method:
Rhodamine B was embedded in a hydrogel formed by 20 mmol·L^−1 6-dehydroabietylamide-N,N-dimethyl-hexylamine oxide and in vitro release experiments were carried out in a constant temperature oscillating water bath at 37° C. The absorbance of the release solution was measured by an ultraviolet-visible spectrophotometer to obtain an in vitro release curve. […] It can be seen that the hydrogel formed by 6-dehydroabietylamide-N,N-dimethyl-hexylamine oxide had good sustained-release ability and can be used in the fields of drug sustained release and so on.

Series [6] is described as follows: Circular dichroism spectrum of gel. As to conditions: 5 mmol·L^−1 gel, 300-180 nm. Type of series: physicochemical. As to the method:
The measurement was carried out on a circular dichroism spectrometer model MOS-450. The signal was recorded at intervals of 0.1 nm within the wavelength range of 300-180 nm. Gel samples were measured using a 0.1 mm quartz sample cell.
On the technique in general: CD spectra are sensitive to the conformation of chiral molecules.

A short description of series [7]: Determination of gel behavior (vial inversion). Type of series: physicochemical. The protocol: To 1 mL of deionized water, 6-dehydroabietylamide-N,N-dimethyl-hexylamine oxide was added (concentrations were 4 mmol·L^−1, 10 mmol·L^−1, 15 mmol·L^−1, 20 mmol·L^−1, and 25 mmol·L^−1, respectively). The solution was heated to 40° C. to completely dissolve the 6-dehydroabietylamide-N,N-dimethyl-hexylamine oxide, and then allowed to stand at room temperature, and the solution state was investigated.
It can be seen from the photograph of the appearance of a gel formed by 6-dehydroabietylamide-N,N-dimethyl-hexylamine oxide in FIG. 5 (concentrations from left to right were 4 mmol·L^−1, 10 mmol·L^−1, 15 mmol·L^−1, 20 mmol·L^−1, and 25 mmol·L^−1, respectively) that when the concentration of 6-dehydroabietylamide-N,N-dimethyl-hexylamine oxide was greater than 4 mmol·L^−1, the 6-dehydroabietylamide-N,N-dimethyl-hexylamine oxide can support its own weight without flowing after invertion, indicating the formed gel has excellent viscoelasticity.
In a hydrogel formed by 4 mmol·L^−1 of 6-dehydroabietylamide-N,N-dimethyl-hexylamine oxide, the critical gelling concentration of the 6-dehydroabietylamide-N,N-dimethyl-hexylamine oxide was only 0.176%. Upon conversion, on average, each gelling agent molecule can immobilize 13,889 water molecules, showing extremely high gelling efficiency.

A short description of series [8]: Preparation of O/W type gel emulsion at different oil-water ratios. In kind it is physicochemical. Conditions: 20 mmol·L^−1 stabilizer, oil phase volume fraction 10% to 90%. The protocol: An amount of 6-dehydroabietylamide amine oxide was added to a 22 mm (d)×52 mm (h) glass vial with a total volume of 10 mL. After adding a certain amount of deionized water, the vial was heated in a water bath at 50° C. until the 6-dehydroabietylamide amine oxide was completely dissolved to obtain a transparent solution. Different volumes of oil were added to the 6-dehydroabietylamide amine oxide solution (the volume ratios of 6-dehydroabietylamide amine oxide solution to oil were 1:9, 2:8, 3:7, 4:6, 5:5, 6:4, 7:3, 8:2, and 9:1, and total volume was 4 mL), then the mixture was emulsified at 11,000 r/min using an ultraturrax homogenizer (IKA T18 basic, S18N-10G head) for 2 min. The emulsion was allowed to stand and cool at a low temperature to form a white gel emulsion.

The structures appear in SMILES notation.

Regarding `CC(C)c1ccc2c(c1)CCC1C(C)(C(=O)NCC[N+](C)(C)[O-])CCCC21C` (stereo not shown) [2-dehydroabietylamide-N,N-dimethyl-ethylamine oxide], in series [1], the gel formation result is given as “neither 2-dehydroabietylamide-N,N-dimethyl-ethylamine oxide nor 3-dehydroabietylamide-N,N-dimethyl-propylamine oxide could form a gel” and the “viscosity of the system (steady-state shear)” value is on record as “comparable to the viscosity of water”.

As for `CC(C)c1ccc2c(c1)CCC1C(C)(C(=O)NCCC[N+](C)(C)[O-])CCCC21C` (stereo not shown) [3-dehydroabietylamide-N,N-dimethyl-propylamine oxide], in [1], the gel formation result is given as “neither 2-dehydroabietylamide-N,N-dimethyl-ethylamine oxide nor 3-dehydroabietylamide-N,N-dimethyl-propylamine oxide could form a gel” and the “viscosity of the system (steady-state shear)” value was “comparable to the viscosity of water”.

`CC(C)c1ccc2c(c1)CCC1C(C)(C(=O)NCCCCCC[N+](C)(C)[O-])CCCC21C` (stereo not shown) [6-dehydroabietylamide-N,N-dimethyl-hexylamine oxide] returned a critical micelle concentration in series [2] of 0.56 mmol/L. In addition, the “γcmc (surface tension at cmc)” value in [2] is reported as 35 mN·m^−1. Also, the “viability and proliferation of L929 cells in the gel” value in the series on L929 cells was “higher viability and proliferative ability”. The “cross-sectional diameter of nanofiber” value in [3] was “about 10 nm”. The length of nanofiber entry in series [3] was “more than 2 μm”. For the same compound, the “stability of the gel emulsion after placing for one year” value in [4] (0.22% of the mass of the continuous phase, disperse phase volume fraction 1%-98%) is listed as “did not undergo demulsification”. Also, the Stability result in series [4] (continuous phase 0.2, disperse phase 9.8) is recorded as “No demulsification occurs after incubation”; in [4] (continuous phase 3, disperse phase 7), “No demulsification occurs after incubation”; in series [4] (continuous phase 5, disperse phase 5), “No demulsification occurs after incubation”; in series [4] (continuous phase 7, disperse phase 3), “No demulsification occurs after incubation”; in [4] (continuous phase 9.9, disperse phase 0.1) it was “No demulsification occurs after incubation”. The “release rate of Rhodamine B” value in series [5] (in 40 h) turned out to be 76%; in series [5] (within 5 h) it was 28%. Further, the “chiral aggregate structure of nanofiber (CD signal)” value in [6] is “left-handed helix”. Moreover, the “water molecules immobilized per gelling agent molecule (on average)” value in series [7] (at critical gelling concentration, upon conversion) was 13,889. The “concentration at which gel supports its own weight without flowing after inversion” value in series [7] (deionized water, dissolved at 40° C., stood at room temperature) is given as “greater than 4 mmol·L^−1”. In addition, the critical gelling concentration in series [7] (in water, hydrogel formed by 4 mmol·L^−1, room temperature) was found to be 0.176%. In addition, the “stability of dodecane/hydrogel emulsion” value in [8] is on record as “no phase separation occurs”.

Source of the values: US11352317B2, “Rosin-based small molecular weight hydrogelator and its application” (Jiangnan University, priority 2019, dated 2022).
